Experimental data reported in ChEMBL document CHEMBL5726212, “Substituted pyridines as inhibitors of human immunodeficiency virus replication” (2019).

Experiment: Inhibition of HIV replication: A recombinant NL-RLuc proviral clone was constructed in which a section of the nef gene from NL4-3 was replaced with the Renilla Luciferase gene. This virus is fully infectious and can undergo multiple cycles of replication in cell culture. In addition, the luciferous reporter provides a simple and easy method for quantitating the extent of virus growth and consequently, the antiviral activity of test compounds. The plasmid pNLRLuc contains the proviral NL-Rluc DNA cloned into pUC18 at the PvuII site. The NL-RLuc virus was prepared by transfection of 293T cells with the plasmid pNLRLuc. Transfections were performed using the LipofectAMINE PLUS kit from Invitrogen (Carlsbad, Calif.) according to the manufacturer and the virus generated was titered in MT-2 cells. For susceptibility analyses, the titrated virus was used to infect MT-2 cells in the presence of compound, and after 5 days of incubation, cells were processed and quantitated for virus growth by the amount of expressed luciferase. Assay media was RPMI 1640 supplemented with 10% heat inactivated fetal bovine serum (FBS), 100 units/ml penicillin G/100 units/ml streptomycin, 10 mM HEPES buffer pH 7.55 and 2 mM L-glutamine. The results from at least 2 experiments were used to calculate the EC50 values. Luciferase was quantitated using the Dual Luciferase kit from Promega (Madison, Wis.). Susceptibility of viruses to compounds was determined by incubation in the presence of serial dilutions of the compound. The 50% effective concentration (EC50) was calculated by using the exponential form of the median effect equation where (Fa)=1/[1+(ED50/drug conc.)m] (Johnson V A, Byington R T. Infectivity Assay. In Techniques in HIV Research. ed. Aldovini A, Walker B D. 71-76. New York: Stockton Press.1990).
Format: cell-based

Compound | EC50 | EC50 (HEK-293T)
COc1cc(F)c(CN2CCc3cc(-c4c(C)nc(C)c([C@H](OC(C)(C)C)C(=O)O)c4N4CCC(C)(C)CC4)ccc3C2)c(F)c1 | < 100 nM | < 100 nM
Cc1ccc(CN2CCc3cc(-c4c(C)nc(C)c([C@H](OC(C)(C)C)C(=O)O)c4N4CCC(C)(C)CC4)ccc3C2)cc1C | < 100 nM | < 100 nM
COc1cc(F)cc(F)c1CN1CCc2cc(-c3c(C)nc(C)c([C@H](OC(C)(C)C)C(=O)O)c3N3CCC(C)(C)CC3)ccc2C1 | < 100 nM | < 100 nM
